Among the data in the supplement of paper PMC10307832 are relative viability values, retold here.

One assay deals with NCI-H1755. The experiment in a line: relative viability (nuclei count vs DMSO), 5 days (fraction); higher = more cells survive. Conditions: first compound 0.6325 µM. Summed up:
(§1)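 Lung cancer cell lines were seeded in 1536-well plates and dosed by pin tool the next day, with either a single drug or a fixed anchor-drug dose combined with five library-drug doses (not always all listed) spaced in √10 steps. Five days later, one step fixed the cells and stained their nuclei (final 0.05% Triton X-100, 1% formaldehyde, 1 ug/ml Hoechst), and nuclei were counted on 4× images. Relative viability is the nuclei count in treated wells divided by the count in vehicle wells, and each value is the median of duplicate plates.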
`COCC1(CO)C(=O)C2CCN1CC2` (stereo not given) [PRIMA-1MET] + Nc1ncn([C@H]2C[C@H](O)[C@@H](CO)O2)c(=O)n1 [Decitabine] (partner 2 µM) registered a relative viability of 0.583.

The molecule `COCC1(CO)C(=O)C2CCN1CC2` (stereo not given) [PRIMA-1MET] + O=C(c1cc(Cc2n[nH]c(=O)c3ccccc23)ccc1F)N1CCN(C(=O)C2CC2)CC1 [Olaparib] (partner 8 µM) displayed a relative viability of 0.904.

`COCC1(CO)C(=O)C2CCN1CC2` (stereo not given) [PRIMA-1MET] + C[C@@H](Oc1cc(-c2cnn(C3CCNCC3)c2)cnc1N)c1c(Cl)ccc(F)c1Cl [Crizotinib] (partner 1 µM) registered a relative viability of 0.825.

Staying with this assay, now noted: first compound 2 µM.
`COCC1(CO)C(=O)C2CCN1CC2` (stereo not given) [PRIMA-1MET] + CC(C)C[C@H](NC(=O)[C@H](Cc1ccccc1)NC(=O)c1cnccn1)B(O)O [Bortezomib] (partner 0.002 µM) registered a relative viability of 0.877.

Turning to `COCC1(CO)C(=O)C2CCN1CC2` (stereo not given) [PRIMA-1MET] + CC(=O)Nc1cccc(-n2c(=O)n(C3CC3)c(=O)c3c(Nc4ccc(I)cc4F)n(C)c(=O)c(C)c32)c1 [Trametinib] (partner 0.02 µM), the relative viability worked out at 0.644.

As to `COCC1(CO)C(=O)C2CCN1CC2` (stereo not given) [PRIMA-1MET] + Nc1ncn([C@H]2C[C@H](O)[C@@H](CO)O2)c(=O)n1 [Decitabine] (partner 2 µM), the relative viability was determined as 0.72.

In the case of `COCC1(CO)C(=O)C2CCN1CC2` (stereo not given) [PRIMA-1MET] + O=C(c1cc(Cc2n[nH]c(=O)c3ccccc23)ccc1F)N1CCN(C(=O)C2CC2)CC1 [Olaparib] (partner 8 µM), the relative viability stood at 0.782.

As to `COCC1(CO)C(=O)C2CCN1CC2` (stereo not given) [PRIMA-1MET] + C[C@@H](Oc1cc(-c2cnn(C3CCNCC3)c2)cnc1N)c1c(Cl)ccc(F)c1Cl [Crizotinib] (partner 1 µM), the relative viability is 0.826.

The same assay, now with this note: first compound 6.325 µM.
In the case of `COCC1(CO)C(=O)C2CCN1CC2` (stereo not given) [PRIMA-1MET] + CC(C)C[C@H](NC(=O)[C@H](Cc1ccccc1)NC(=O)c1cnccn1)B(O)O [Bortezomib] (partner 0.002 µM), the relative viability is 0.974.

For the molecule `COCC1(CO)C(=O)C2CCN1CC2` (stereo not given) [PRIMA-1MET] + CC(=O)Nc1cccc(-n2c(=O)n(C3CC3)c(=O)c3c(Nc4ccc(I)cc4F)n(C)c(=O)c(C)c32)c1 [Trametinib] (partner 0.02 µM), the relative viability turned out to be 0.745.

With `COCC1(CO)C(=O)C2CCN1CC2` (stereo not given) [PRIMA-1MET] + Nc1ncn([C@H]2C[C@H](O)[C@@H](CO)O2)c(=O)n1 [Decitabine] (partner 2 µM), the relative viability was 0.723.

As to `COCC1(CO)C(=O)C2CCN1CC2` (stereo not given) [PRIMA-1MET] + O=C(c1cc(Cc2n[nH]c(=O)c3ccccc23)ccc1F)N1CCN(C(=O)C2CC2)CC1 [Olaparib] (partner 8 µM), the relative viability is 0.805.

As for `COCC1(CO)C(=O)C2CCN1CC2` (stereo not given) [PRIMA-1MET] + C[C@@H](Oc1cc(-c2cnn(C3CCNCC3)c2)cnc1N)c1c(Cl)ccc(F)c1Cl [Crizotinib] (partner 1 µM), the relative viability worked out at 0.915.

The same assay, now with this note: first compound 20 µM.
Consider `COCC1(CO)C(=O)C2CCN1CC2` (stereo not given) [PRIMA-1MET] + CC(C)C[C@H](NC(=O)[C@H](Cc1ccccc1)NC(=O)c1cnccn1)B(O)O [Bortezomib] (partner 0.002 µM), for which the relative viability came out at 0.975.

`COCC1(CO)C(=O)C2CCN1CC2` (stereo not given) [PRIMA-1MET] + CC(=O)Nc1cccc(-n2c(=O)n(C3CC3)c(=O)c3c(Nc4ccc(I)cc4F)n(C)c(=O)c(C)c32)c1 [Trametinib] (partner 0.02 µM) displayed a relative viability of 0.762.

Consider `COCC1(CO)C(=O)C2CCN1CC2` (stereo not given) [PRIMA-1MET] + Nc1ncn([C@H]2C[C@H](O)[C@@H](CO)O2)c(=O)n1 [Decitabine] (partner 2 µM), for which the relative viability was found to be 0.772.

Turning to `COCC1(CO)C(=O)C2CCN1CC2` (stereo not given) [PRIMA-1MET] + O=C(c1cc(Cc2n[nH]c(=O)c3ccccc23)ccc1F)N1CCN(C(=O)C2CC2)CC1 [Olaparib] (partner 8 µM), the relative viability came out at 0.817.

`COCC1(CO)C(=O)C2CCN1CC2` (stereo not given) [PRIMA-1MET] + C[C@@H](Oc1cc(-c2cnn(C3CCNCC3)c2)cnc1N)c1c(Cl)ccc(F)c1Cl [Crizotinib] (partner 1 µM) came in with a relative viability of 0.81.

For a further assay, the system named is NCI-H1975. Described as above. Conditions: first compound 0.2 µM. In outline: as §1
Molecule `COCC1(CO)C(=O)C2CCN1CC2` (stereo not given) [PRIMA-1MET] + CC(C)C[C@H](NC(=O)[C@H](Cc1ccccc1)NC(=O)c1cnccn1)B(O)O [Bortezomib] (partner 0.002 µM) had a relative viability of 0.457.

For the molecule `COCC1(CO)C(=O)C2CCN1CC2` (stereo not given) [PRIMA-1MET] + CC(=O)Nc1cccc(-n2c(=O)n(C3CC3)c(=O)c3c(Nc4ccc(I)cc4F)n(C)c(=O)c(C)c32)c1 [Trametinib] (partner 0.02 µM), the relative viability came out at 0.362.

As to `COCC1(CO)C(=O)C2CCN1CC2` (stereo not given) [PRIMA-1MET] + Nc1ncn([C@H]2C[C@H](O)[C@@H](CO)O2)c(=O)n1 [Decitabine] (partner 2 µM), the relative viability is 0.389.

`COCC1(CO)C(=O)C2CCN1CC2` (stereo not given) [PRIMA-1MET] + O=C(c1cc(Cc2n[nH]c(=O)c3ccccc23)ccc1F)N1CCN(C(=O)C2CC2)CC1 [Olaparib] (partner 8 µM) had a relative viability of 1.01.

`COCC1(CO)C(=O)C2CCN1CC2` (stereo not given) [PRIMA-1MET] + C[C@@H](Oc1cc(-c2cnn(C3CCNCC3)c2)cnc1N)c1c(Cl)ccc(F)c1Cl [Crizotinib] (partner 1 µM) came in with a relative viability of 1.12.

The same assay, now with this note: first compound 0.6325 µM.
Molecule `COCC1(CO)C(=O)C2CCN1CC2` (stereo not given) [PRIMA-1MET] + CC(C)C[C@H](NC(=O)[C@H](Cc1ccccc1)NC(=O)c1cnccn1)B(O)O [Bortezomib] (partner 0.002 µM) returned a relative viability of 0.408.

`COCC1(CO)C(=O)C2CCN1CC2` (stereo not given) [PRIMA-1MET] + CC(=O)Nc1cccc(-n2c(=O)n(C3CC3)c(=O)c3c(Nc4ccc(I)cc4F)n(C)c(=O)c(C)c32)c1 [Trametinib] (partner 0.02 µM) yielded a relative viability of 0.232.

Consider `COCC1(CO)C(=O)C2CCN1CC2` (stereo not given) [PRIMA-1MET] + Nc1ncn([C@H]2C[C@H](O)[C@@H](CO)O2)c(=O)n1 [Decitabine] (partner 2 µM), for which the relative viability came out at 0.329.

As for `COCC1(CO)C(=O)C2CCN1CC2` (stereo not given) [PRIMA-1MET] + O=C(c1cc(Cc2n[nH]c(=O)c3ccccc23)ccc1F)N1CCN(C(=O)C2CC2)CC1 [Olaparib] (partner 8 µM), the relative viability worked out at 0.699.

Take `COCC1(CO)C(=O)C2CCN1CC2` (stereo not given) [PRIMA-1MET] + C[C@@H](Oc1cc(-c2cnn(C3CCNCC3)c2)cnc1N)c1c(Cl)ccc(F)c1Cl [Crizotinib] (partner 1 µM): the relative viability was found to be 0.962.

The same assay, now with this note: first compound 2 µM.
For `COCC1(CO)C(=O)C2CCN1CC2` (stereo not given) [PRIMA-1MET] + CC(C)C[C@H](NC(=O)[C@H](Cc1ccccc1)NC(=O)c1cnccn1)B(O)O [Bortezomib] (partner 0.002 µM), the relative viability came to 0.399.

Take `COCC1(CO)C(=O)C2CCN1CC2` (stereo not given) [PRIMA-1MET] + CC(=O)Nc1cccc(-n2c(=O)n(C3CC3)c(=O)c3c(Nc4ccc(I)cc4F)n(C)c(=O)c(C)c32)c1 [Trametinib] (partner 0.02 µM): the relative viability came out at 0.277.
